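96-well plates; 48 h exposure; 5 concentrations. Endpoints by linear interpolation between flanking doses. Not reached: highest tested concentration assigned. GI50: concentration for 50% inhibition of growth.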 Calls of active or inactive are those of the source. Rule as the data show it: active = GI50 up to about 1.1 µM and inactive = higher.
Columns and labels:
Assay in all cases: NCI tumour cell line growth inhibition, 48 h
786-0 = tested on: 786-0
A498 = tested on: A498
A549 = tested on: A549
ACHN = tested on: ACHN
BT-549 = tested on: BT-549
CAKI-1 = tested on: CAKI-1
COLO 205 = tested on: COLO 205
DU-145 = tested on: DU-145
EKVX = tested on: EKVX
HCC 2998 = tested on: HCC 2998
HCT-116 = tested on: HCT-116
HCT-15 = tested on: HCT-15
HOP-62 = tested on: HOP-62
HOP-92 = tested on: HOP-92
HT-29 = tested on: HT-29
Hs-578T = tested on: Hs-578T
IGROV-1 = tested on: IGROV-1
KM12 = tested on: KM12
LOX IMVI = tested on: LOX IMVI
M14 = tested on: M14
MDA-MB-231 = tested on: MDA-MB-231
MDA-MB-435 = tested on: MDA-MB-435
MDA-N = tested on: MDA-N
MOLT-4 = tested on: MOLT-4
Malme-3M = tested on: Malme-3M
NCI-H226 = tested on: NCI-H226
NCI-H23 = tested on: NCI-H23
NCI-H460 = tested on: NCI-H460
NCI-H522 = tested on: NCI-H522
NCI/ADR-RES = tested on: NCI/ADR-RES
OVCAR-3 = tested on: OVCAR-3
OVCAR-4 = tested on: OVCAR-4
OVCAR-5 = tested on: OVCAR-5
OVCAR-8 = tested on: OVCAR-8
PC-3 = tested on: PC-3
RPMI-8226 = tested on: RPMI-8226
RXF 393 = tested on: RXF 393
SF-268 = tested on: SF-268
SF-295 = tested on: SF-295
SF-539 = tested on: SF-539
SK-MEL-28 = tested on: SK-MEL-28
SK-MEL-2 = tested on: SK-MEL-2
SK-MEL-5 = tested on: SK-MEL-5
SK-OV-3 = tested on: SK-OV-3
SN12C = tested on: SN12C
SNB-19 = tested on: SNB-19
SNB-75 = tested on: SNB-75
SR = tested on: SR
SW-620 = tested on: SW-620
T47D = tested on: T47D
TK-10 = tested on: TK-10
U-251 = tested on: U-251
UACC-257 = tested on: UACC-257
UACC-62 = tested on: UACC-62
CCRF-CEM = tested on: CCRF-CEM
HL-60 = tested on: HL-60
K562 = tested on: K562
MCF7 = tested on: MCF7
UO-31 = tested on: UO-31

`CCOC(=O)/C(C#N)=C/c1ccnc2ccccc12` was tested, and the GI50 (786-0) was 61.9 µM (inactive), the GI50 (A498) was > 100 µM (inactive) and the GI50 (A549) was > 100 µM (inactive). For the same molecule, the GI50 (ACHN) was > 100 µM (inactive), the GI50 (BT-549) was 50.5 µM (inactive) and the GI50 (CAKI-1) was > 100 µM (inactive). For the same molecule, the GI50 (COLO 205) was > 100 µM (inactive), the GI50 (DU-145) was > 100 µM (inactive) and the GI50 (EKVX) was > 100 µM (inactive). For the same molecule, the GI50 (HCC 2998) was > 100 µM (inactive), the GI50 (HCT-116) was 2.19 µM (inactive) and the GI50 (HCT-15) was 31.9 µM. For the same molecule, the GI50 (HOP-62) was > 100 µM (inactive), the GI50 (HOP-92) was 40.2 µM (inactive) and the GI50 (HT-29) was > 100 µM (inactive). The GI50 (Hs-578T) was > 100 µM (inactive), the GI50 (IGROV-1) was 40.2 µM (inactive) and the GI50 (KM12) was 32.5 µM (inactive). For the same molecule, the GI50 (LOX IMVI) was 15.6 µM (inactive), the GI50 (M14) was 56.9 µM (inactive) and the GI50 (MDA-MB-231) was 83.9 µM (inactive). For the same molecule, the GI50 (MDA-MB-435) was 37.2 µM (inactive), the GI50 (MDA-N) was > 100 µM (inactive) and the GI50 (MOLT-4) was 63.5 µM (inactive). For the same molecule, the GI50 (Malme-3M) was 37.1 µM (inactive), the GI50 (NCI-H226) was > 100 µM (inactive) and the GI50 (NCI-H23) was 31.8 µM (inactive). For the same molecule, the GI50 (NCI-H460) was > 100 µM (inactive), the GI50 (NCI-H522) was > 100 µM (inactive) and the GI50 (NCI/ADR-RES) was 13.5 µM (inactive). The GI50 (OVCAR-3) was 53.7 µM (inactive), the GI50 (OVCAR-4) was > 100 µM (inactive) and the GI50 (OVCAR-5) was > 100 µM (inactive). The GI50 (OVCAR-8) was 10.4 µM (inactive), the GI50 (PC-3) was 36.9 µM (inactive) and the GI50 (RPMI-8226) was 25.4 µM (inactive). For the same molecule, the GI50 (RXF 393) was > 100 µM (inactive), the GI50 (SF-268) was > 100 µM (inactive) and the GI50 (SF-295) was 93.1 µM (inactive). The GI50 (SF-539) was 20.2 µM (inactive), the GI50 (SK-MEL-28) was 88.5 µM (inactive) and the GI50 (SK-MEL-2) was > 100 µM (inactive). For the same molecule, the GI50 (SK-MEL-5) was 31.7 µM (inactive), the GI50 (SK-OV-3) was > 100 µM (inactive) and the GI50 (SN12C) was 76.4 µM (inactive). The GI50 (SNB-19) was 81.7 µM (inactive), the GI50 (SNB-75) was > 100 µM (inactive) and the GI50 (SR) was 2.28 µM (inactive). For the same molecule, the GI50 (SW-620) was 9.79 µM (inactive), the GI50 (T47D) was > 100 µM (inactive) and the GI50 (TK-10) was > 100 µM (inactive). The GI50 (U-251) was > 100 µM (inactive), the GI50 (UACC-257) was > 100 µM (inactive) and the GI50 (UACC-62) was > 100 µM (inactive).

In the case of `COc1cccc(NC(=O)c2c(N)n[nH]c2SC)c1`, the GI50 (786-0) is reported as > 100 µM (inactive), the GI50 (A498) is reported as > 100 µM (inactive) and the GI50 (A549) is reported as > 100 µM (inactive). The GI50 (ACHN) was > 100 µM (inactive), the GI50 (BT-549) was > 100 µM (inactive) and the GI50 (CAKI-1) was > 100 µM (inactive). The GI50 (CCRF-CEM) was > 100 µM (inactive), the GI50 (COLO 205) was > 100 µM (inactive) and the GI50 (EKVX) was > 100 µM (inactive). The GI50 (HCC 2998) was > 100 µM (inactive), the GI50 (HCT-116) was > 100 µM (inactive) and the GI50 (HCT-15) was greater than 100 µM. The GI50 (HL-60) was > 100 µM (inactive), the GI50 (HOP-62) was > 100 µM (inactive) and the GI50 (HOP-92) was > 100 µM (inactive). For the same molecule, the GI50 (HT-29) was > 100 µM (inactive), the GI50 (Hs-578T) was > 100 µM (inactive) and the GI50 (IGROV-1) was > 100 µM (inactive). For the same molecule, the GI50 (K562) was > 100 µM (inactive), the GI50 (KM12) was > 100 µM (inactive) and the GI50 (LOX IMVI) was > 100 µM (inactive). For the same molecule, the GI50 (M14) was > 100 µM (inactive), the GI50 (MCF7) was > 100 µM (inactive) and the GI50 (MDA-MB-231) was > 100 µM (inactive). The GI50 (MDA-MB-435) was > 100 µM (inactive), the GI50 (MDA-N) was > 100 µM (inactive) and the GI50 (MOLT-4) was > 100 µM (inactive). For the same molecule, the GI50 (Malme-3M) was > 100 µM (inactive), the GI50 (NCI-H226) was > 100 µM (inactive) and the GI50 (NCI-H460) was > 100 µM (inactive). The GI50 (NCI-H522) was > 100 µM (inactive), the GI50 (NCI/ADR-RES) was > 100 µM (inactive) and the GI50 (OVCAR-4) was > 100 µM (inactive). For the same molecule, the GI50 (OVCAR-5) was > 100 µM (inactive), the GI50 (OVCAR-8) was > 100 µM (inactive) and the GI50 (PC-3) was > 100 µM (inactive). For the same molecule, the GI50 (RPMI-8226) was 84.9 µM (inactive), the GI50 (RXF 393) was > 100 µM (inactive) and the GI50 (SF-268) was > 100 µM (inactive). For the same molecule, the GI50 (SF-295) was > 100 µM (inactive), the GI50 (SF-539) was > 100 µM (inactive) and the GI50 (SK-MEL-28) was > 100 µM (inactive). The GI50 (SK-MEL-2) was > 100 µM (inactive), the GI50 (SK-MEL-5) was > 100 µM (inactive) and the GI50 (SK-OV-3) was > 100 µM (inactive). For the same molecule, the GI50 (SN12C) was > 100 µM (inactive), the GI50 (SNB-19) was > 100 µM (inactive) and the GI50 (SNB-75) was > 100 µM (inactive). The GI50 (SW-620) was > 100 µM (inactive), the GI50 (TK-10) was > 100 µM (inactive) and the GI50 (U-251) was > 100 µM (inactive). The GI50 (UACC-257) was > 100 µM (inactive) and the GI50 (UACC-62) was > 100 µM (inactive).

`O=C1c2ccccc2C(=O)c2c(NC(=O)C3CC3)ccc(NC(=O)C3CC3)c21` was tested, and the GI50 (786-0) was 61.7 µM (inactive), the GI50 (A498) was > 100 µM (inactive) and the GI50 (A549) was > 100 µM (inactive). The GI50 (ACHN) was 58.2 µM (inactive), the GI50 (BT-549) was > 100 µM (inactive) and the GI50 (COLO 205) was > 100 µM (inactive). For the same molecule, the GI50 (EKVX) was > 100 µM (inactive), the GI50 (HCC 2998) was > 100 µM (inactive) and the GI50 (HCT-116) was > 100 µM (inactive). For the same molecule, the GI50 (HCT-15) was greater than 100 µM, the GI50 (HL-60) was 95.7 µM (inactive) and the GI50 (HOP-62) was > 100 µM (inactive). For the same molecule, the GI50 (HT-29) was > 100 µM (inactive), the GI50 (Hs-578T) was > 100 µM (inactive) and the GI50 (IGROV-1) was > 100 µM (inactive). The GI50 (K562) was > 100 µM (inactive), the GI50 (KM12) was > 100 µM (inactive) and the GI50 (LOX IMVI) was > 100 µM (inactive). The GI50 (MCF7) was 83.2 µM (inactive), the GI50 (MDA-MB-231) was > 100 µM (inactive) and the GI50 (MDA-MB-435) was > 100 µM (inactive). For the same molecule, the GI50 (MDA-N) was > 100 µM (inactive), the GI50 (MOLT-4) was > 100 µM (inactive) and the GI50 (Malme-3M) was 61.2 µM (inactive). The GI50 (NCI-H23) was > 100 µM (inactive), the GI50 (NCI-H460) was > 100 µM (inactive) and the GI50 (NCI-H522) was 65.8 µM (inactive). For the same molecule, the GI50 (NCI/ADR-RES) was > 100 µM (inactive), the GI50 (OVCAR-3) was > 100 µM (inactive) and the GI50 (OVCAR-5) was > 100 µM (inactive). The GI50 (OVCAR-8) was > 100 µM (inactive), the GI50 (PC-3) was > 100 µM (inactive) and the GI50 (RPMI-8226) was > 100 µM (inactive). For the same molecule, the GI50 (SF-295) was 33.4 µM (inactive), the GI50 (SF-539) was > 100 µM (inactive) and the GI50 (SK-MEL-28) was > 100 µM (inactive). The GI50 (SK-MEL-2) was > 100 µM (inactive), the GI50 (SK-MEL-5) was > 100 µM (inactive) and the GI50 (SN12C) was > 100 µM (inactive). For the same molecule, the GI50 (SNB-19) was > 100 µM (inactive), the GI50 (SR) was > 100 µM (inactive) and the GI50 (SW-620) was > 100 µM (inactive). For the same molecule, the GI50 (T47D) was > 100 µM (inactive), the GI50 (TK-10) was > 100 µM (inactive) and the GI50 (U-251) was 91.2 µM (inactive). The GI50 (UACC-257) was > 100 µM (inactive), the GI50 (UACC-62) was 26.9 µM (inactive) and the GI50 (UO-31) was > 100 µM (inactive).
